Measured values reported in PubChem BioAssay (NCI).
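96-well plates; 48 h exposure; 5 concentrations. Endpoints by linear interpolation between flanking doses. Not reached: highest tested concentration assigned. The concentration for full growth arrest is given as TGI.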

How the values were obtained:
Experiment in all cases: NCI tumour cell line growth inhibition, 48 h
[1] = test system: SF-268 CNS
[2] = test system: RXF 393 renal
[3] = test system: K-562 leukemia
[4] = test system: UACC-62 melanoma
[5] = test system: HOP-92 NSCLC
[6] = test system: HL-60(TB) leukemia
[7] = test system: PC-3 prostate
[8] = test system: NCI-H460 lung
[9] = test system: NCI-H23 lung
[10] = test system: RPMI-8226 leukemia
[11] = test system: OVCAR-5 ovarian
[12] = test system: SN12C renal
[13] = test system: OVCAR-8 ovarian
[14] = test system: HCT-15 colon
[15] = test system: EKVX NSCLC
[16] = test system: SF-295 CNS
[17] = test system: HS 578T breast
[18] = test system: KM12 colon
[19] = test system: NCI-H522 lung
[20] = test system: MDA-MB-231 breast
[21] = test system: 786-0 renal
[22] = test system: MDA-N
[23] = test system: A549 NSCLC
[24] = test system: MDA-MB-435
[25] = test system: SK-OV-3 ovarian
[26] = test system: CCRF-CEM leukemia
[27] = test system: NCI/ADR-RES ovarian
[28] = test system: A498 renal
[29] = test system: SNB-19 CNS
[30] = test system: UACC-257 melanoma
[31] = test system: U251 CNS
[32] = test system: IGROV1 ovarian
[33] = test system: CAKI-1 renal
[34] = test system: SR leukemia
[35] = test system: SF-539 CNS
[36] = test system: MOLT-4 leukemia
[37] = test system: SK-MEL-2 melanoma
[38] = test system: M14 melanoma
[39] = test system: HCC-2998 colon
[40] = test system: COLO 205 colon
[41] = test system: ACHN renal
[42] = test system: MALME-3M melanoma
[43] = test system: SW-620 colon
[44] = test system: OVCAR-4 ovarian
[45] = test system: HT29 colon
[46] = test system: TK-10 renal
[47] = test system: MCF7 breast
[48] = test system: OVCAR-3 ovarian
[49] = test system: BT-549 breast
[50] = test system: SK-MEL-5 melanoma
[51] = test system: LOX IMVI melanoma
[52] = test system: NCI-H226 lung
[53] = test system: HCT-116 colon
[54] = test system: HOP-62 NSCLC
[55] = test system: DU-145 prostate
[56] = test system: T-47D breast
[57] = test system: SK-MEL-28 melanoma
[58] = test system: SNB-75 CNS
[59] = test system: UO-31 renal

With `CC(=O)c1cc(I)c(O)c2ncccc12` the TGI [1] was 9.86 µM, the TGI [2] was 8.76 µM and the TGI [3] was > 10 µM. The TGI [4] was 7.9 µM, the TGI [5] was 6.19 µM and the TGI [6] was 4.28 µM. For the same compound, the TGI [7] was > 10 µM, the TGI [8] was > 10 µM and the TGI [9] was 8.45 µM. For the same compound, the TGI [10] was > 10 µM, the TGI [11] was > 10 µM and the TGI [12] was > 10 µM. For the same compound, the TGI [13] was 7.38 µM, the TGI [14] was > 10 µM and the TGI [15] was > 10 µM. The TGI [16] was 9.61 µM, the TGI [17] was > 10 µM and the TGI [18] was > 10 µM. The TGI [19] was > 10 µM, the TGI [20] was 8.09 µM and the TGI [21] was 9.07 µM. The TGI [22] was > 10 µM, the TGI [23] was > 10 µM and the TGI [24] was > 10 µM. The TGI [25] was > 10 µM, the TGI [26] was 4.45 µM and the TGI [27] was 8.24 µM. For the same compound, the TGI [28] was 6.53 µM, the TGI [29] was > 10 µM and the TGI [30] was 6.06 µM. The TGI [31] was > 10 µM, the TGI [32] was 7.44 µM and the TGI [33] was > 10 µM. For the same compound, the TGI [34] was 8.98 µM, the TGI [35] was 6.57 µM and the TGI [36] was 5.77 µM. The TGI [37] was > 10 µM, the TGI [38] was 4.09 µM and the TGI [39] was > 10 µM. For the same compound, the TGI [40] was 7.81 µM, the TGI [41] was 5.6 µM and the TGI [42] was 6.97 µM. For the same compound, the TGI [43] was > 10 µM, the TGI [44] was 6.82 µM and the TGI [45] was > 10 µM. For the same compound, the TGI [46] was > 10 µM, the TGI [47] was > 10 µM and the TGI [48] was 6.57 µM. The TGI [49] was > 10 µM, the TGI [50] was 5.08 µM and the TGI [51] was > 10 µM. The TGI [52] was 5.7 µM, the TGI [53] was 5.93 µM and the TGI [54] was > 10 µM. The TGI [55] was 8.45 µM, the TGI [56] was > 10 µM and the TGI [57] was > 10 µM.

In the case of `CC1=C(C(=O)N[C@@H](CC(C)C)C(=O)O)N2C(=O)[C@@H](NC(=O)[C@@H](N)Cc3ccccc3)[C@H]2SC1`, the TGI [1] is reported as > 100 µM, the TGI [2] is reported as > 100 µM and the TGI [3] is reported as > 100 µM. The TGI [4] was > 100 µM, the TGI [5] was > 100 µM and the TGI [6] was > 100 µM. The TGI [7] was > 100 µM, the TGI [8] was > 100 µM and the TGI [10] was > 100 µM. The TGI [11] was > 100 µM, the TGI [12] was > 100 µM and the TGI [13] was > 100 µM. For the same compound, the TGI [14] was > 100 µM, the TGI [15] was > 100 µM and the TGI [16] was > 100 µM. For the same compound, the TGI [17] was > 100 µM, the TGI [18] was > 100 µM and the TGI [19] was > 100 µM. For the same compound, the TGI [20] was > 100 µM, the TGI [21] was > 100 µM and the TGI [22] was > 100 µM. For the same compound, the TGI [23] was > 100 µM, the TGI [24] was > 100 µM and the TGI [26] was > 100 µM. For the same compound, the TGI [27] was > 100 µM, the TGI [28] was > 100 µM and the TGI [29] was > 100 µM. For the same compound, the TGI [30] was > 100 µM, the TGI [31] was > 100 µM and the TGI [32] was > 100 µM. The TGI [33] was > 100 µM, the TGI [34] was > 100 µM and the TGI [35] was > 100 µM. For the same compound, the TGI [36] was > 100 µM, the TGI [37] was > 100 µM and the TGI [38] was > 100 µM. For the same compound, the TGI [39] was > 100 µM, the TGI [40] was > 100 µM and the TGI [41] was > 100 µM. The TGI [42] was > 100 µM, the TGI [43] was > 100 µM and the TGI [44] was > 100 µM. The TGI [46] was > 100 µM, the TGI [47] was > 100 µM and the TGI [48] was > 100 µM. The TGI [58] was > 100 µM, the TGI [49] was > 100 µM and the TGI [50] was > 100 µM. For the same compound, the TGI [51] was > 100 µM, the TGI [52] was > 100 µM and the TGI [55] was > 100 µM. The TGI [56] was > 100 µM and the TGI [57] was > 100 µM.

For `CN(C(=O)CCC(=O)O)c1ccccc1C(=O)O`, the TGI [1] was > 100 µM, the TGI [2] was > 100 µM and the TGI [3] was > 100 µM. The TGI [4] was > 100 µM, the TGI [5] was > 100 µM and the TGI [6] was > 100 µM. The TGI [7] was > 100 µM, the TGI [8] was > 100 µM and the TGI [9] was > 100 µM. For the same compound, the TGI [10] was > 100 µM, the TGI [11] was > 100 µM and the TGI [13] was > 100 µM. For the same compound, the TGI [14] was > 100 µM, the TGI [15] was > 100 µM and the TGI [16] was > 100 µM. For the same compound, the TGI [17] was > 100 µM, the TGI [18] was > 100 µM and the TGI [20] was > 100 µM. For the same compound, the TGI [21] was > 100 µM, the TGI [22] was > 100 µM and the TGI [23] was > 100 µM. The TGI [24] was > 100 µM, the TGI [25] was > 100 µM and the TGI [26] was > 100 µM. For the same compound, the TGI [59] was > 100 µM, the TGI [27] was > 100 µM and the TGI [28] was > 100 µM. The TGI [29] was > 100 µM, the TGI [30] was > 100 µM and the TGI [31] was > 100 µM. The TGI [32] was > 100 µM, the TGI [33] was > 100 µM and the TGI [34] was > 100 µM. For the same compound, the TGI [35] was > 100 µM, the TGI [36] was > 100 µM and the TGI [37] was > 100 µM. For the same compound, the TGI [38] was > 100 µM, the TGI [39] was > 100 µM and the TGI [40] was > 100 µM. The TGI [41] was > 100 µM, the TGI [42] was > 100 µM and the TGI [43] was > 100 µM. For the same compound, the TGI [44] was > 100 µM, the TGI [45] was > 100 µM and the TGI [46] was > 100 µM. The TGI [47] was > 100 µM, the TGI [48] was > 100 µM and the TGI [58] was > 100 µM. For the same compound, the TGI [49] was > 100 µM, the TGI [50] was > 100 µM and the TGI [51] was > 100 µM. The TGI [52] was > 100 µM, the TGI [53] was > 100 µM and the TGI [55] was > 100 µM. The TGI [56] was > 100 µM and the TGI [57] was > 100 µM.
